Test results taken from ChEMBL document CHEMBL2331510, “Antimycobacterial activity evaluation, time-kill kinetic and 3D-QSAR study of C-(3-aminomethyl-cyclohexyl)-methylamine derivatives” (Bioorg Med Chem Lett, 2013).
In brackets after ≈: the same amount, converted by molar mass. Activity calls are given as the source filed them. The rule behind the calls is not given here.

System: Mycobacterium tuberculosis
Test: Antitubercular activity against Mycobacterium tuberculosis H37Rv at 20 uM after 5 days by fluorescence assay
Type: functional, organism-based
Settings: not given
With Clc1cccc(Cl)c1CNCC1CCCC(CNCc2c(Cl)cccc2Cl)C1 (centres undefined) the inhibition was “inactive”.
For O=[N+]([O-])c1cccc(CNCC2CCCC(CNCc3cccc([N+](=O)[O-])c3)C2)c1 (centres undefined), the inhibition was “inactive”.
With Fc1cccc(CNCC2CCCC(CNCc3cccc(F)c3)C2)c1 (centres undefined) the inhibition was “inactive”.
For Fc1ccc(CNCC2CCCC(CNCc3ccc(F)cc3)C2)cc1 (centres undefined), the inhibition was “inactive”.
For Clc1ccccc1CNCC1CCCC(CNCc2ccccc2Cl)C1 (centres undefined), the inhibition was “inactive”.
In the case of c1ccc(CNCC2CCCC(CNCc3ccccc3)C2)cc1 (centres undefined), the inhibition is reported as “inactive”.
With Cc1ccccc1CNCC1CCCC(CNCc2ccccc2C)C1 (centres undefined) the inhibition was “inactive”.
In the case of Fc1ccccc1CNCC1CCCC(CNCc2ccccc2F)C1 (centres undefined), the inhibition is reported as “inactive”.
For O=[N+]([O-])c1ccccc1CNCC1CCCC(CNCc2ccccc2[N+](=O)[O-])C1 (centres undefined), the inhibition was “inactive”.
For COc1ccc(CNCC2CCCC(CNCc3ccc(OC)cc3)C2)cc1 (centres undefined), the inhibition was “inactive”.
With FC(F)(F)c1ccccc1CNCC1CCCC(CNCc2ccccc2C(F)(F)F)C1 (centres undefined) the inhibition was “inactive”.
In the case of Fc1cccc(F)c1CNCC1CCCC(CNCc2c(F)cccc2F)C1 (centres undefined), the inhibition is reported as “inactive”.
With O=[N+]([O-])c1ccc(CNCC2CCCC(CNCc3ccc([N+](=O)[O-])cc3)C2)cc1 (centres undefined) the inhibition was “inactive”.
With Fc1cc(F)cc(CNCC2CCCC(CNCc3cc(F)cc(F)c3)C2)c1 (centres undefined) the inhibition was “inactive”.
For CN1CCN(c2ccc(CNCC3CCCC(CNCc4ccc(N5CCN(C)CC5)cc4)C3)cc2)CC1 (centres undefined), the inhibition was “inactive”.

System: Mycobacterium tuberculosis
Test: Bactericidal activity against Mycobacterium tuberculosis H37Rv assessed as reduction in CFU at 10 times MIC by serial dilution-based time kill assay relative to control
Type: functional, organism-based
Settings: TDE = time-dependent effect
For CC(C)(C)c1ccc(CNCC2CCCC(CNCc3ccc(C(C)(C)C)cc3)C2)cc1.Cl.Cl (centres undefined), the Activity was “tde”.

System: Mycobacterium tuberculosis
Test: Antitubercular activity against Mycobacterium tuberculosis H37Rv after 5 days by fluorescence assay
Type: functional
Settings: 120 h
c1cc(N2CCCCC2)ccc1CNCC1CCCC(CNCc2ccc(N3CCCCC3)cc2)C1 (centres undefined) showed an MIC of 13.8 µM (≈ 6.74 µg/mL).
Work on CCCCCCCCc1ccccc1CNCC1CCCC(CNCc2ccccc2CCCCCCCC)C1 (centres undefined) yielded an MIC of 16.1 µM (≈ 8.81 µg/mL).
In the case of Brc1ccccc1CNCC1CCCC(CNCc2ccccc2Br)C1 (centres undefined), the MIC is reported as > 20 µM.
Work on CCCCCc1ccc(CNCC2CCCC(CNCc3ccc(CCCCC)cc3)C2)cc1 (centres undefined) yielded an MIC of 6.7 µM (≈ 3.1 µg/mL).
With Brc1ccc(CNCC2CCCC(CNCc3ccc(Br)cc3)C2)cc1 (centres undefined) the MIC was 12.2 µM (≈ 5.86 µg/mL).
With FC(F)(F)c1ccc(CNCC2CCCC(CNCc3ccc(C(F)(F)F)cc3)C2)cc1 (centres undefined) the MIC was 12.5 µM (≈ 5.73 µg/mL).
With Cc1ccc(CNCC2CCCC(CNCc3ccc(C)c(C)c3)C2)cc1C (centres undefined) the MIC was > 20 µM.
Molecule CCc1ccc(CNCC2CCCC(CNCc3ccc(CC)cc3)C2)cc1 (centres undefined) has an MIC of 15.7 µM (≈ 5.94 µg/mL).
For CCCCc1ccc(CNCC2CCCC(CNCc3ccc(CCCC)cc3)C2)cc1.Cl.Cl (centres undefined), the MIC was 2.4 µM.
Molecule Clc1ccc(CNCC2CCCC(CNCc3ccc(Cl)cc3Cl)C2)c(Cl)c1 (centres undefined) has an MIC of 20 µM (≈ 9.21 µg/mL).
Work on c1cc(N2CCCC2)ccc1CNCC1CCCC(CNCc2ccc(N3CCCC3)cc2)C1 (centres undefined) yielded an MIC of 9.5 µM (≈ 4.38 µg/mL).
In the case of Cc1ccc(CNCC2CCCC(CNCc3ccc(C)cc3C)C2)c(C)c1 (centres undefined), the MIC is reported as > 20 µM.
Molecule CC(C)c1ccc(CNCC2CCCC(CNCc3ccc(C(C)C)cc3)C2)cc1 (centres undefined) has an MIC of 4.4 µM (≈ 1.79 µg/mL).
With Cc1ccc(C)c(CNCC2CCCC(CNCc3cc(C)ccc3C)C2)c1 (centres undefined) the MIC was > 20 µM.
Work on CC[C@@H](CO)NCCN[C@@H](CC)CO [ETHAMBUTOL] yielded an MIC of 2 µM (≈ 0.409 µg/mL).
CCCCCCc1ccccc1CNCC1CCCC(CNCc2ccccc2CCCCCC)C1 (centres undefined) gave an MIC of 8.8 µM (≈ 4.32 µg/mL).
With CCCCCCCc1ccc(CNCC2CCCC(CNCc3ccc(CCCCCCC)cc3)C2)cc1 (centres undefined) the MIC was 3.1 µM (≈ 1.61 µg/mL).
CCCCCCc1ccc(CNCC2CCCC(CNCc3ccc(CCCCCC)cc3)C2)cc1 (centres undefined) showed an MIC of 5.6 µM (≈ 2.75 µg/mL).
In the case of Cc1cccc(CNCC2CCCC(CNCc3cccc(C)c3)C2)c1 (centres undefined), the MIC is reported as > 20 µM.
For Clc1cccc(CNCC2CCCC(CNCc3cccc(Cl)c3)C2)c1 (centres undefined), the MIC was > 20 µM.
With c1ccc(N2CCN(c3ccc(CNCC4CCCC(CNCc5ccc(N6CCN(c7ccccc7)CC6)cc5)C4)cc3)CC2)cc1 (centres undefined) the MIC was 4.4 µM (≈ 2.83 µg/mL).
Work on Brc1cccc(CNCC2CCCC(CNCc3cccc(Br)c3)C2)c1 (centres undefined) yielded an MIC of 12.7 µM (≈ 6.1 µg/mL).
Work on CCCCCc1ccccc1CNCC1CCCC(CNCc2ccccc2CCCCC)C1 (centres undefined) yielded an MIC of 8.7 µM (≈ 4.03 µg/mL).
With CCCCCCCc1ccccc1CNCC1CCCC(CNCc2ccccc2CCCCCCC)C1 (centres undefined) the MIC was 20 µM (≈ 10.4 µg/mL).
Cc1cc(C)cc(CNCC2CCCC(CNCc3cc(C)cc(C)c3)C2)c1 (centres undefined) gave an MIC of 17.5 µM (≈ 6.63 µg/mL).
Work on CCCCCCCCc1ccc(CNCC2CCCC(CNCc3ccc(CCCCCCCC)cc3)C2)cc1 (centres undefined) yielded an MIC of 3.2 µM (≈ 1.75 µg/mL).
Work on CCCc1ccc(CNCC2CCCC(CNCc3ccc(CCC)cc3)C2)cc1 (centres undefined) yielded an MIC of 4.2 µM (≈ 1.71 µg/mL).
For Cc1ccc(CNCC2CCCC(CNCc3ccc(C)cc3)C2)cc1 (centres undefined), the MIC was > 20 µM.
For CC(C)(C)c1ccc(CNCC2CCCC(CNCc3ccc(C(C)(C)C)cc3)C2)cc1.Cl.Cl (centres undefined), the MIC was 1.1 µM.
Clc1ccc(CNCC2CCCC(CNCc3ccc(Cl)cc3)C2)cc1 (centres undefined) showed an MIC of 17.5 µM (≈ 6.85 µg/mL).

System: Mycobacterium tuberculosis
Test: Bactericidal activity against Mycobacterium tuberculosis H37Rv assessed as reduction in CFU at 10 times MIC after 4 days by serial dilution-based time kill assay relative to control
Type: functional, organism-based
Settings: not given
For CCCCc1ccc(CNCC2CCCC(CNCc3ccc(CCCC)cc3)C2)cc1.Cl.Cl (centres undefined), the Activity was “Active”.
For CC(C)(C)c1ccc(CNCC2CCCC(CNCc3ccc(C(C)(C)C)cc3)C2)cc1.Cl.Cl (centres undefined), the Activity was “Active”.

System: not listed separately
Test: Cytotoxicity against human RBC up to 500 ug/ml
Type: cell-based
Settings: erythrocyte
For CCCCc1ccc(CNCC2CCCC(CNCc3ccc(CCCC)cc3)C2)cc1.Cl.Cl (centres undefined), the Activity was “Non-toxic”.
With CC(C)(C)c1ccc(CNCC2CCCC(CNCc3ccc(C(C)(C)C)cc3)C2)cc1.Cl.Cl (centres undefined) the Activity was “Non-toxic”.

System: Mycobacterium tuberculosis
Test: Bactericidal activity against Mycobacterium tuberculosis H37Rv assessed as log reduction in CFU at 10 times MIC over 2 days by serial dilution-based time kill assay relative to control
Type: functional
Settings: not given
Molecule CCCCc1ccc(CNCC2CCCC(CNCc3ccc(CCCC)cc3)C2)cc1.Cl.Cl (centres undefined) has an FC of 5.
For CC(C)(C)c1ccc(CNCC2CCCC(CNCc3ccc(C(C)(C)C)cc3)C2)cc1.Cl.Cl (centres undefined), the FC was 5.

System: Mycobacterium tuberculosis
Test: Bactericidal activity against Mycobacterium tuberculosis H37Rv assessed as reduction in CFU over 4 days by serial dilution-based time kill assay relative to control
Type: functional
Settings: not given
In the case of CC(C)(C)c1ccc(CNCC2CCCC(CNCc3ccc(C(C)(C)C)cc3)C2)cc1.Cl.Cl (centres undefined), the Activity is reported as “Dose-dependent effect”.

Same assay, conditions: 96 h
With CC(C)(C)c1ccc(CNCC2CCCC(CNCc3ccc(C(C)(C)C)cc3)C2)cc1.Cl.Cl (centres undefined) the MBC was 4.5 µM.
